Reference: article PMC11933534, “Favipiravir induces HuNoV viral mutagenesis and infectivity loss with clinical improvement in immunocompromised patients” (Clinical Immunology (Orlando, Fla.), 2024)

Tests used:
Assay type in all cases: in vivo
HuNoV GII.4 Sydney[P16] = test: Antiviral treatment of HuNoV-infected zebrafish larvae (viral RNA by RT-qPCR)
Procedure: (§1) First, compounds were dissolved in 100% DMSO (spectroscopy grade). To determine the correct dose for pericardial injections in zebrafish larvae of all compounds (i.e. favipiravir, tizoxanide and their 1:1 combination), a weight-dependent conversion was applied. For this purpose, the optimized and increased clinical dose of 400 mg favipiravir TDS and 200 mg tizoxanide BD was used. To ensure the weight-converted dose was not toxic for zebrafish larvae of 3 days post fertilization, a toxicity analysis was performed. […] The following parameters were investigated: touch response, morphology, posture, oedema, signs of necrosis, swim bladder and heartbeat.
Zebrafish larvae were anesthetized and positioned as described previously, in short: zebrafish larvae of 3 days post fertilization were anesthetized and transferred to an agarose mold to position them on their dorsal side with the yolk facing upward. In every experiment, the injection needle was calibrated to ensure the precision of the injection volume. Microinjection was performed using an M3301R Manual Micromanipulator (WPI, Friedberg, Germany) and a FemtoJet 4i pressure microinjector (Eppendorf, Hamburg, Germany). Compound-treated zebrafish larvae received a 1 nL (1.5 nL in case of the combination treatment) injection of compound in the pericardial cavity, while negative control zebrafish were injected with an equal volume of DMSO. Subsequently, the zebrafish larvae received an injection of 3 nL virus in the yolk. After both injections, zebrafish larvae were transferred to 6-well plates with Danieau's solution and further maintained in an incubator with a 14/10 h light/dark cycle at 32 °C.
Zebrafish larvae were homogenized (Precellys 24, Bertin Technologies, Montigny-le-Bretonneux, France), the homogenates were cleared by centrifugation (5 min, 9000 g), and RNA was extracted using the Direct-zol RNA kit (Zymo Research, Irvine, CA, USA), according to the manufacturer's protocol. RNA levels were quantified with a one-step RT-qPCR (iTaq Universal Probes One-Step Kit, Bio-Rad, Hercules, CA, USA) as previously described.

zebrafish larvae = test: Toxicity analysis in zebrafish larvae
Procedure: as §1

IRF-1 = test: Innate immune gene expression in HuNoV-infected zebrafish larvae: IRF-1; details: tizoxanide 4 ng; HuNoV GII.4 Sydney[P16]; day 2 pi; p = 0.023
Procedure: (§2) To generate the cDNA, the ImProm-II Reverse Transcription System (Promega, Madison, WI, USA) was used. Briefly, a total of 1 μg (ca. 8 μL) of extracted RNA was added to 2 μL of random hexamers and incubated at 70 °C for 5 min, followed by 5 min at 4 °C. To this reaction mix a total volume of 30 μL containing 8 μL of Improm II 5× reaction buffer, 6 mM MgCl2, 0.5 mM deoxynucleoside triphosphate, 40 units of RNase inhibitor, 2 μL of Improm II reverse transcriptase, followed by an incubation at 25 °C for 5 min, 37 °C for 1 h, and 72 °C for 15 min. A qPCR was performed with 4 μL template cDNA using the SsoAdvanced Universal SYBR green supermix, 600 nM of forward and reverse primers for IRF-1, Mx and the housekeeping genes 18 s, β-actin, and ef1a. Primer sequences were as previously described [[65], [66], [67], [68]]. Cycling conditions were as follows; polymerase activation at 95 °C for 3 min followed by 40 cycles of denaturation at 95 °C for 15 s, annealing at 55 °C and extension at 72 °C for 30 s (Quantstudio 5, ThermoFisher Scientific, Waltham, MA, USA). Data was normalized to the housekeeping genes and compared to DMSO-injected zebrafish larvae infected with HuNoV to determine the fold induction of the expression, according to the Livak method.

Mx = test: Innate immune gene expression in HuNoV-infected zebrafish larvae: Mx; details: tizoxanide 4 ng; HuNoV GII.4 Sydney[P16]; day 2 pi; p = 0.0403
Procedure: as §2

O=C(Nc1ncc([N+](=O)[O-])s1)c1ccccc1O [tizoxanide]
Reduction of HuNoV replication (HuNoV GII.4 Sydney[P16]; monotherapy favipiravir 25 ng or tizoxanide 4 ng, in-house GII.4 Sydney[P16] stool sample, peak 2 dpi, p = 0.0006 and 0.001): > 1 log10
Effect on HuNoV replication (HuNoV GII.4 Sydney[P16]; tizoxanide 4 ng alone, inoculum SS A, p > 0.05): no significant effect
Toxicity in the zebrafish larval model (zebrafish larvae; 25 ng favipiravir or 4 ng tizoxanide, drug administered alone): did not show toxicity
Toxicity in the zebrafish larval model (zebrafish larvae; tizoxanide 6 ng): signs of toxicity, including heart oedema, necrosis and spine curvature
Fold increase in IRF-1 expression vs untreated (DMSO) infected larvae (IRF-1): 4 fold
Fold increase in Mx expression vs untreated (DMSO) infected larvae (Mx): 9 fold
